Test: Osmolality of cyclodextrins as a function of concentration in pure water
Type: physicochemical
Conditions: ambient room temperature, various concentrations (FIG. 5)
Procedure: The osmolality of four cyclodextrins was determined as a function of concentration in pure water by the following procedure. Various amounts of cyclodextrins were dissolved in water at ambient room temperature.

## sulfobutylether-β-cyclodextrin [NaSBECD]
  osmolality: significantly higher osmolality than the other β-cyclodextrins tested

— patent US20060258617A1, “DRUG DELIVERY TO THE BACK OF THE EYE” (Allergan, Inc., priority 2004, published 2006)
